How the values were obtained:
P. aeruginosa PPK2A = target: T1, P. aeruginosa PPK2A (Pseudomonas aeruginosa, UniProt Q9I6Z1); assay: PPK2A ADP phosphorylation by polyP (ATP synthesis), toluidine blue detection; assay type: biochemical; settings: ATP synthesis from ADP and polyP; 275 nM enzyme; read-out: IC50 PPK2A
T1 construct: residues P9 to P289; MBP (N, cleaved yes); His tag (N, cleaved yes); made in house; host or cells: E. coli BL21(DE3)
Procedure: All IC50 and kinetic assay mixtures contained equimolar amounts (275 nM) of PPK to ensure valid comparison between different enzymes. PolyP synthesis activity (for PPK1 and PPK2B) was assayed using the reaction buffer and conditions described above. ATP concentration was varied as indicated for kinetic experiments. Curves were fit using GraphPad Prism V9.
Nucleotide phosphorylation activity of PPK2 enzymes was assayed in buffer containing 50 mM Tris-HCl, pH 7.5, 10 mM (NH4)2SO4, 10 mM MgCl2, 5 mM polyP45 (Sigma; in terms of individual Pi monomers), and nucleotide (ADP or AMP) at 5 mM for IC50 reactions or as indicated for kinetic experiments. Enzyme was added to a final concentration of 275 nM in 100-μl reaction volumes. One-hundred-microliter reaction mixtures were incubated at 37°C for 30 min, and then 5-μl aliquots were withdrawn and added to 1,000 μl of 6-mg/liter toluidine blue dissolved in 40 mM acetic acid to quench the reaction and quantify the polyP that remained. The A630/530 nm ratio was then recorded, and the values obtained were corrected by subtracting the corresponding blanks (all ingredients except enzyme). The amount of polyP consumed was calculated by subtracting the amount present after reaction from that present in the initial reaction mix, as calculated via a standard curve. Each monomer of Pi consumed from polyP equates to one nucleoside phosphorylated. Curves were fit using GraphPad Prism V9.

P. aeruginosa PA14 [1] = assay: Bacterial polyP accumulation assay after phosphate starvation; assay type: cell-based, Pseudomonas aeruginosa
Procedure: P. aeruginosa polyP levels following nutrient deprivation in morpholinepropanesulfonic acid (MOPS) minimal medium were assessed as described previously ([8]), with slight variations. Briefly, overnight cultures were grown in 5 ml LB in the presence of inhibitor or DMSO as indicated. Cultures were centrifuged for 10 min at 3,900 rpm to pellet cells, which were then resuspended in MOPS minimal medium containing 100 μM phosphate and the indicated quantity of inhibitor or DMSO. Cultures were incubated at 37°C for 2 h to allow polyP accumulation and then subsequently pelleted, resuspended in guanidinium thiocyanate (GITC) lysis buffer, and boiled at 95°C for 5 min. PolyP was purified via silica spin column as described previously ([8]), with the exception of using 50 nM PPK2A instead of E. coli PPK to convert polyP to ATP. An Invitrogen ATP determination kit (ThermoFisher) was used per the manufacturer’s instructions for ATP quantification. Luminescence was recorded on a SpectraMax iD3 microplate reader (Molecular Devices).

P. aeruginosa PA14 [2] = assay: Biofilm assay, crystal violet staining; assay type: cell-based, Pseudomonas aeruginosa
Procedure: P. aeruginosa biofilms were quantified as described previously ([54]). Briefly, M63 medium supplemented with 1 mM MgSO4 and 0.4% arginine as the sole carbon source was colony inoculated with PA14. Biofilms were allowed to form in 96-well tissue culture plates (U-bottom; Sarstedt) at 37°C for 16 h. Wells were washed twice with sterile water. Biofilm rings were stained with 0.1% crystal violet, washed twice with water, and then solubilized in 30% acetic acid to record absorbance at 570 nm.

P. aeruginosa PA14 [3] = assay: Pyocyanin quantification (absorbance at 520 nm); assay type: cell-based, Pseudomonas aeruginosa
Procedure: Fifty-milliliter P. aeruginosa cultures in 2.5% (wt/vol) LB (Miller; Bioshop) were grown to stationary phase in 125-ml Erlenmeyer flasks with 180-rpm shaking at 37°C for 18 h. Cultures were centrifuged at 18,000 rpm for 30 min to clarify the supernatant, which was then filter sterilized. Pyoverdine was quantified spectrophotometrically at 403 nm as described previously ([55]). Pyocyanin was extracted via chloroform and treated with HCl to yield a red product that was quantified at 520 nm ([55]). To account for any colorimetric interference by inhibitors, cell-free blank readings were subtracted from each sample.

P. aeruginosa PA14 [4] = assay: Bacterial growth kinetics (OD600); assay type: cell-based, Pseudomonas aeruginosa
Text: FIG 3 Gallein phenocopies ppk deletion to attenuate P. aeruginosa swimming motility. (A) Representative image of swimming motility. (B) Quantification of the effects of gallein treatment and ppk gene deletion on swimming motility. (C) PA14 growth kinetics in the presence and absence of gallein in lysogeny broth (equivalent in composition to swim plates, minus the agar). ns, P > 0.05; *, P < 0.05; **, P < 0.01; ***, P < 0.001 (two-way ANOVA, Tukey’s multiple-comparison test, n = 3). All data points are the average from triplicates; error bars are ±standard deviation.
Supplementary file : FIG S4 Growth curves of P. aeruginosa WT and ΔpolyP in M63 biofilm medium (A) and liquid killing C. elegans assay medium (B). Gallein, or an equivalent volume of DMSO, was added to a 100 μM final concentration. OD600 monitored in triplicate cultures grown in 96-well plates at 37°C following colony inoculation. Error bars ± standard deviation. Download FIG S4, TIF file, 2.5 MB.

P. aeruginosa = assay: C. elegans liquid killing (LK) infection assay; assay type: in vivo, Caenorhabditis elegans; settings: 100 μM gallein
Procedure: Wild-type N2 C. elegans and the glp-4 conditionally sterile mutant strain were obtained from the Caenorhabditis Genetics Center. Liquid killing assays were conducted using glp-4 mutant worms as described previously ([35]), with the exception of survival being scored manually under a Zeiss light microscope instead of via Sytox Orange staining. Nematodes were scored as dead when they no longer moved when tapped. Solid killing was conducted using glp-4 as described previously ([34]), with the indicated concentration of inhibitor impregnated into the SK agar. Bacterial CFU accumulation in WT N2 worms was quantified as described previously ([56]). Briefly, age-synchronized embryos were spotted onto bacterium-seeded nematode growth medium (NGM) agar plates impregnated with inhibitor or DMSO. Embryos were incubated at 25°C for 3 days, after which point adult worms were harvested, washed, lysed, and enumerated for CFU.

[5] = WT: DMSO control vs 100 µM gallein
[6] = Δppk1: DMSO control vs 100 µM gallein

T1 sequence (Q9I6Z1 68-348): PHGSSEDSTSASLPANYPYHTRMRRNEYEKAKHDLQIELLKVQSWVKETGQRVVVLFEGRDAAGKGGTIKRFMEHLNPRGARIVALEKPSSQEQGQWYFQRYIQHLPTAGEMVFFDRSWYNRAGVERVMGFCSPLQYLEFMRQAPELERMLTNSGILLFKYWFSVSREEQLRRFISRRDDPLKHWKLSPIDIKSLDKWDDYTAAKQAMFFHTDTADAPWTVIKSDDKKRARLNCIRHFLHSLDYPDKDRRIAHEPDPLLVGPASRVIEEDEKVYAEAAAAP

O=C1OC2(c3ccccc31)c1ccc(O)c(O)c1Oc1c2ccc(O)c1O [RT4 (gallein), gallein]
IC50 (P. aeruginosa PPK2A): 16 ± 3 µM | polyP levels (P. aeruginosa PA14 [1]; WT, phosphate starvation medium, nonbactericidal amounts): reduced wild-type (WT) polyP levels in a dose-dependent manner | Bacterial polyP accumulation, Mean Diff. (P. aeruginosa PA14 [1]; [5]): 68.65 | Bacterial polyP accumulation, Mean Diff. (P. aeruginosa PA14 [1]; Δppk1, Δppk2A, Δppk2B, Δppk2C: DMSO control vs 100 µM gallein): 2.148 | Bacterial polyP accumulation, Mean Diff. (P. aeruginosa PA14 [1]; [6]): 29.11 | polyP levels (P. aeruginosa PA14 [1]; Δppk1 strain): significantly reduced polyP levels | polyP levels (P. aeruginosa PA14 [1]; Δppk1 Δppk2A Δppk2B Δppk2C (ΔpolyP) strain): had no effect | polyP levels (P. aeruginosa PA14 [1]; Δppk2A Δppk2B Δppk2C strain): reduced polyP in this strain to a similar extent as that in the WT | Bacterial polyP accumulation, Mean Diff. (P. aeruginosa PA14 [1]; Δppk2A, Δppk2B, Δppk2C: DMSO control vs 100 µM gallein): 74.9 | Biofilm formation, Mean Diff. (P. aeruginosa PA14 [2]; [5]): 0.1666 | biofilm formation (P. aeruginosa PA14 [2]; WT, reduction dose dependent): reduced biofilm formation | biofilm formation (P. aeruginosa PA14 [2]; ΔpolyP strain): no significant effect | Biofilm formation, Mean Diff. (P. aeruginosa PA14 [2]; Δppk1, 2a, 2b, 2c: DMSO control vs 100 µM gallein): 0.005375 | Biofilm formation, Mean Diff. (P. aeruginosa PA14 [2]; [6]): 0.08825 | biofilm formation (P. aeruginosa PA14 [2]; Δppk1 strain): further decreased biofilm formation | Biofilm formation, Mean Diff. (P. aeruginosa PA14 [2]; Δppk2a, 2b, 2c: DMSO control vs 100 µM gallein): 0.08488 | biofilm formation (P. aeruginosa PA14 [2]; Δppk2 strain): further decreased biofilm formation | pyocyanin production (P. aeruginosa PA14 [3]; WT, Δppk1 and Δppk2 strains): reproduced the marked pyoverdine and pyocyanin defects observed in the ΔpolyP strain | Pyocyanin, Mean Diff. (P. aeruginosa PA14 [3]; [5]): 0.2097 | pyocyanin production (P. aeruginosa PA14 [3]; ΔpolyP strain): no significant decrease of either toxin | Pyocyanin, Mean Diff. (P. aeruginosa PA14 [3]; ∆ppk1, 2a, 2b, 2c: DMSO control vs 100 µM gallein): 0.07567 | Pyocyanin, Mean Diff. (P. aeruginosa PA14 [3]; ∆ppk1: DMSO control vs 100 µM gallein): 0.08867 | Pyocyanin, Mean Diff. (P. aeruginosa PA14 [3]; ∆ppk2a, 2b, 2c: DMSO control vs 100 µM gallein): 0.2097 | growth kinetics (P. aeruginosa PA14 [4]; LK conditions, 100 μM): near-WT growth kinetics | planktonic growth rate (P. aeruginosa PA14 [4]; biofilm assay conditions (M63 medium), 100 μM): did not affect the planktonic growth rate | bacterial growth kinetics (P. aeruginosa PA14 [4]; lysogeny broth): did not affect bacterial growth kinetics | C. elegans survival (P. aeruginosa): significantly improved survival rates

— PMC8262977, “A Dual-Specificity Inhibitor Targets Polyphosphate Kinase 1 and 2 Enzymes To Attenuate Virulence of Pseudomonas aeruginosa” (mBio, 2021)
